Laboratory results from patent US20210386744A1, “SILDENAFIL FOR USE IN THE TREATMENT OF OSTEOARTHRITIS” (MAZELOTTEN 353 AB under namnandring till ARTROA AB, priority 2018, published 2021).
Entries after “also recorded” stand apart in the source; their conditions may differ.

How the values were obtained:
[1] = system: human chondrocytes; experiment: Quantitative real-time PCR of growth factors GDF-5 and FGF-18 in chondrocytes; type: cell-based; details: for FGF18 expression / GDF5 expression: human chondrocytes, treatment of bupivacaine and sildenafil, FIGS. 1C-D
Description: Cells (human chondrocytes) aimed for RNA isolation were washed with sterile PBS twice before addition of 1M DL-Dithiothreitol solution (Sigma Aldrich) in lysis buffer (Qiagen). The cells were visually inspected to ensure lysis before transfer to RNAse free, endtoxin-free sample tubes, snap frozen in liquid nitrogen, and stored at −80° C. for RNA isolation. Total RNA was extracted and purified with a commercially available kit (RNeasy mini kit, Qiagen) in accordance with the manufacturer's protocol. In brief, cells in lysis buffer were thawed and vortexed for 1 minute before 70% ethanol was added (1:1). The samples were mixed before addition to a spin column, and centrifuged. The column was then washed before genomic DNA was removed with DNase (Qiagen). The washing step was repeated with a stringent wash buffer and thereafter a mild buffer for washing membrane bound RNA. Total RNA was eluted with 50 μl RNase free water. RNA concentration was measured ho with a micro-volume spectrophotometer (ND-1000 spectrophotometer, NanoDrop Technologies, Wilmington, Del.) and RNA quality was evaluated using the Agilent 2100 Bioanalyzer system (Agilent Technologies Inc, Palo Alto, Calif.). cDNA was prepared from total RNA using High Capacity cDNA Reverse Transcription Kit (Applied Biosystems, Foster City, Calif., USA). Commercially available TaqMan Gene Expression Assays all from Applied Biosystems were used (Fibroblast growth factor 18 (FGF-18) and Growth and differentiation factor-5 (GDF-5)). Samples were analyzed in duplicates. The relative comparative CT method was used to analyze the real-time polymerase chain reaction (PCR) data.

[2] = system: Horse chondrocytes from OA horses; experiment: ATP-evoked intracellular Ca2+ signalling in horse chondrocytes (fluorescence-based assay, Flexstation 3); type: cell-based; details: for intracellular Ca2+ release (AUC and peak): ATP 10^-4 M, OA horse chondrocytes
Description: Horse chondrocytes from OA horses were stimulated, in a fluorescence-based assay for detecting changes in intracellular Ca^2+ over time, with ATP (10^−4 M). The cells were cultivated in 5.5 mM glucose the whole cultivation period. Ca^2+ responses were measured after the cells were incubated for 24 h with metformin (1 mM), and bupivacaine (10^−12 M). Controls are untreated chondrocytes. The area under the Ca^2+ peak (AUC)(FIG. 1 A) was calculated for each Ca^2+ transient as well as the amplitude (peak) (FIG. 1 B) was expressed as the maximum increase. The cells were obtained from 4 experiments with quadruple wells in each. The level of significance was analyzed using a one-way ANOVA followed by Dunnett'multiple comparisons test. **P<0.01, **P<0.001. Similar data was obtained for human chondrocytes.
Articular cartilage samples were obtained, within 24 h of euthanasia, from the middle carpal joints of six horses (1-8-year-old). […] The horses were euthanized because of reasons unrelated to this study, and the Ethical Committee on Animal Experiments, Stockholm, Sweden, approved the study protocol (Dnr: N378/12).
Following aseptic preparation, cartilage of the dorsal aspect of the radial facet of the third carpal bone was incised with a scalpel, and full-thickness cartilage samples were collected with forceps. The tissue was placed in a sterile saline (0.9% NaCl) solution with gentamicin sulfate (50 mg/l) and amphotericin B (250 μg/ml). Cartilage samples were transported chilled (approx. 5° C.) to the laboratory. Isolation and expansion of chondrocytes were performed as previously described (Ley C, Svala E, Nilton A, Lindahl A, Eloranta M, Ekman S, Skiöldebrand E.Connect Tissue Res. (2011); 52 (4): 290-300). Cells were expanded in passage 1 and cells were seeded at 20,000 cells/cm2 in chondrogenic media to maintain the phenotype, DMEM-high glucose (DMEM-HG) (Thermo Fisher Scientific; Waltham, Mass., USA) supplemented with 14 μg/ml ascorbic acid (Sigma-Aldrich, St. Louis, Mo., USA), 10^−7 M dexamethasone (Sigma-Aldrich), 1 mg/ml human serum albumin (Equitech Bio, Kerville, Tex., USA), 1× insulin-transferrin-selenium (Gibco, Life Technologies, Carlsbad, Calif., USA), 5 μg/ml linoleic acid (Sigma-Aldrich), 1× penicillin-streptomycin (PEST) (Sigma-Aldrich), and 10 ng/ml human transforming growth factor (TGF) β-1 (R&D Systems, Abingdon, UK) for 5 days until confluence, in 96-well culture plates for Ca^2+ or in 6-well culture plates for Western blot analysis.
For restoration the cells were incubated with metformin and bupivacaine at day 4 of cultivation for 24 h. At day 5 the Ca^2+ measurements were performed, medium collected for Western blot analysis and cells were harvested and immediately frozen at −80° C. before analysis. […]

[3] = system: horse with OA; experiment: Clinical lameness examination with flexion test in horses with osteoarthritis; type: in vivo
Excerpt: Lameness examination with flexion test and treatments have been performed by a veterinarian, and the results are shown in FIG. 2A. Lameness examination with flexion test and treatments have been performed by a veterinarian, and the results are shown in FIG. 3A.

[4] = system: COMP neo-epitope; experiment: COMP neo-epitope concentration in synovial fluid and serum of horses with osteoarthritis; type: in vivo, horse; details: for COMP neo-epitope concentration in serum: after treatment and during rehabilitation
Excerpt: Diagnosis of OA may be done with methods known in the art, for example clinical examination, radiography as is known in the art or the use of biomarkers, such as, for example, the COMP protein fragment described in WO2017216289, which is incorporated herein by reference. The presence of the COMP fragment in a bodily fluid, for example serum or synovial fluid, indicates OA, in particular cartilage degradation during OA. The COMP fragment may be detected by using an antibody that specifically binds to a peptide comprising the amino acid sequence N-terminal-SGPTH. It is referred to WO2017216289 for details.
Analysis of COMP epitope concentrations in synovial fluid and serum was carried out as in WO2017216289, and is shown in FIGS. 2B and C, respectively. The presence of the COMP epitope indicates ongoing inflammation and tissue damage in the joint.

CCCCN1CCCCC1C(=O)Nc1c(C)cccc1C (centres unmarked) [bupivacaine]
FGF18 expression [1]: upregulated
GDF5 expression [1]: upregulated
growth factors of importance for generation of cartilage ([1]; low concentration of bupivacaine): upregulated
intracellular Ca2+ release (AUC and peak) ([2]; bupivacaine 10^-12 M together with metformin 1 mM, 24 h): decreased; also recorded: reduced

CCCc1nn(C)c2c(=O)[nH]c(-c3cc(S(=O)(=O)N4CCN(C)CC4)ccc3OCC)nc12 [sildenafil]
growth factors of importance for generation of cartilage ([1]; addition of sildenafil in low concentration to bupivacaine): increased the effect
FGF18 expression [1]: upregulated
GDF5 expression [1]: upregulated
clinical lameness grade ([3]; horse number 2, carpal joints, 10 ml intra-articular injections): clinical recovery
clinical lameness grade ([3]; horse number 3, both carpal joints, intra-articular injection): clinical recovery
intracellular Ca2+ release (AUC and peak) ([2]; sildenafil (1 μM, low concentration) added to bupivacaine/metformin, 24 h): increased the effect
intracellular calcium signalling, in particular ATP-evoked ([2]; low doses): capable of inhibiting
COMP neo-epitope concentration in serum ([4]; horse number 2, FIG. 3C): decrease of COMP levels to normal physiological levels
COMP neo-epitope concentration in synovial fluid ([4]; horse number 2, FIG. 3B): decrease of COMP levels to normal physiological levels
COMP neo-epitope concentration in serum ([4]; horse number 3, FIG. 4C): decreased levels of COMP
COMP neo-epitope concentration in synovial fluid ([4]; horse number 3, FIG. 4B): decreased levels of COMP

C=C1/C(=C\C=C2/CCC[C@]3(C)[C@@H]([C@H](C)CCCC(C)(C)O)CC[C@@H]23)C[C@@H](O)C[C@@H]1O [D3, 1α,25-dihydroxyvitamin D3]
intracellular Ca2+ release ([2]; D3 (calcitriol 100 nM) by itself, 24 h, FIG. 1E): did not have an effect

hyaluronic acid
lameness ([3]; horse number 1, both fetlock joints, hyaluronic acid intra-articularly and corticosteroids orally): lameness was increased
